Test results from ChEMBL document CHEMBL1127345, “Synthesis, binding properties, and 18F labeling of fluorocarazolol, a high-affinity beta-adrenergic receptor antagonist” (J Med Chem, 1994).

What was measured:
Format in all cases: physicochemical
[1] = The octanol-water partition coefficient at pH 10.0
[2] = The octanol-water partition coefficient at pH 10.8
[3] = The octanol-water partition coefficient at pH 4.5
[4] = The octanol-water partition coefficient at pH 5.8
[5] = The octanol-water partition coefficient at pH 6.4
[6] = The octanol-water partition coefficient at pH 7.0
[7] = The octanol-water partition coefficient at pH 7.5
[8] = The octanol-water partition coefficient at pH 9.4
[9] = The octanol-water partition coefficient at pH 3.3
[10] = The octanol-water partition coefficient at pH 8.3

Structure (SMILES)	logD [1]	logD [2]	logD [3]	logD [4]	logD [5]	logD [6]	logD [7]	logD [8]	logD [9]	logD [10]
CC(CF)NCC(O)COc1cccc2[nH]c3ccccc3c12 (stereo not given) [FLUOROCARAZOLOL]	2.81	2.81	0.38	1.11	1.76	2.2	2.48	2.8	0.03	2.7
CC(C)NCC(O)COc1cccc2[nH]c3ccccc3c12 (stereo not given) [CARAZOLOL]	2.5	2.43	0.3	0.42	0.68	1.07	1.51	2.44	0.17	2.13
